Measured values from patent publication US8258177B2, “4-((phenoxyalkyl)thio)-phenoxyacetic acids and analogs” (Janssen Pharmaceutica, N.V., priority 2003, dated 2012).
“And” between values parts separate entries of the source, which are not always exact repeats. Equal entries are not always repeated.

tested on: differentiated THP-1 monocytes; test: not given; settings: cited from earlier work

Compound | ABCA1 mRNA expression | cholesterol efflux
Cc1cc(SCc2sc(-c3ccc(C(F)(F)F)cc3)nc2C)ccc1OCC(=O)O [GW501516] | induced ABCA1 mRNA expression | enhanced cholesterol efflux

target: T1, PPAR delta (Homo sapiens, UniProt Q03181); test: Transfection assay for PPAR receptors (PPAR-Gal4 / Gal4-Luciferase reporter in HEK293 cells); assay type: cell-based; settings: HEK293 cells co-transfected with PPAR-Gal4 receptor and Gal4-Luciferase reporter; 24 hours; multiple values = multiple measurements; read-out: EC50 (PPAR delta)
T1 sequence (Q03181 211-441 limits assumed): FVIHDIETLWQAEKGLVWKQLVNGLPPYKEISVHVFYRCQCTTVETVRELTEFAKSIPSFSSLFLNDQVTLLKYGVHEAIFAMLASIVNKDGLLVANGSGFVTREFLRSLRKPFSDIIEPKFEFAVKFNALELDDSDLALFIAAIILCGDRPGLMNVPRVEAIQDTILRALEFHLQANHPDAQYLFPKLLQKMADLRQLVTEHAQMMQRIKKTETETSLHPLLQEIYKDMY
Procedure: Transfection Assay Method for PPAR Receptors
HEK293 cells were grown in DMEM/F-12 Media supplemented with 10% FBS and glutamine (GIBCOBRL). The cells were co-transfected with DNA for PPAR-Gal4 (PPARα, γ or δ) receptor and Gal4-Luciferase Reporter using the DMRIE-C Reagent. On the following day, the medium was replaced with 5% Charcoal treated FBS growth medium. After six hours, cells were trypsinized and seeded at a density of 50,000 cell/well into 96 well plates and incubated overnight at 37° C. in a 5% CO2 incubator. Cells were then treated with test compounds or vehicle and incubated for 24 hours at 37° C. in a 5% CO2 incubator. Luciferase activity was assayed using the Steady-Glo Luciferase Assay Kit from Promega. […] Steady-Glo Luciferase Assay Kit was purchased from Promega Part# E254B.

EC50 | Compound
67.7 nM and 49.7 nM | Cc1cc(SCC(=Cc2cccc3ccccc23)COc2ccc(C(F)(F)F)cc2)ccc1OCC(=O)O [Compound 19, {2-Methyl-4-[3-naphthalen-1-yl-2-(4-trifluoromethyl-phenoxymethyl)-allylsulfanyl]-phenoxy}-acetic acid]
122 nM | CCC(O)(COc1ccc(C(F)(F)F)cc1)CSc1ccc(OCC(=O)O)c(C)c1 (centres unmarked) [Compound 28, {4-[2-Hydroxy-2-(4-trifluoromethyl-phenoxymethyl)butylsulfanyl]-2-methyl-phenoxy}-acetic acid]
79.2 nM and 51.8 nM | C=C(COc1ccc(Cl)cc1)CSc1ccc(OCC(=O)O)c(C)c1 [Compound 5, {4-[2-(4-Chloro-phenoxymethyl)-allylsulfanyl]-2-methyl-phenoxy}-acetic acid]
32.1 nM and 38.7 nM | Cc1cc(SCC(=CC#N)COc2ccc(C(F)(F)F)cc2)ccc1OCC(=O)O [Compound 17, {4-[3-Cyano-2-(4-trifluoromethyl-phenoxymethyl)-allylsulfanyl]-2-methyl-phenoxy}-acetic acid]
119 nM | Cc1cc(SCC2(COc3ccc(C(F)(F)F)cc3)COC(C)(C)O2)ccc1OCC(=O)O (centres unmarked) [Compound 27, {4-[2,2-Dimethyl-4-(4-trifluoromethyl-phenoxymethyl)-[1,3]dioxolan-4-ylmethylsulfanyl]-2-methyl-phenoxy}-acetic acid]
45.1 nM and 48.3 nM | C=C(COc1ccc(C(F)(F)F)cc1)CSc1ccc(OCC(=O)O)c(Cl)c1 [Compound 11, {2-Chloro-4-[2-(4-trifluoromethyl-phenoxymethyl)-allylsulfanyl]-phenoxy}-acetic acid]
238 nM | C=C(COc1ccc(N(C)C)cc1)CSc1ccc(OCC(=O)O)c(C)c1 [Compound 10, {4-[2-(4-Dimethylamino-phenoxymethyl)-allylsulfanyl]-2-methyl-phenoxy}-acetic acid]
28.9 nM and 68.3 nM | C=C(COc1ccc(C(F)(F)F)cc1)CSc1ccc(CC(=O)O)cc1Cl [Compound 22, {3-Chloro-4-[2-(4-trifluoromethyl-phenoxymethyl)-allylsulfanyl]-phenyl}-acetic acid]
138 nM | C=C(COc1ccc(Cl)cc1Cl)CSc1ccc(OCC(=O)O)c(C)c1 [Compound 7, {4-[2-(2,4-Dichloro-phenoxymethyl)-allylsulfanyl]-2-methyl-phenoxy}-acetic acid]
87.8 nM and 51.4 nM | Cc1cc(SCC(COc2ccc(C(F)(F)F)cc2)=C(F)F)ccc1OCC(=O)O [Compound 16, {4-[3,3-Difluoro-2-(4-trifluoromethyl-phenoxymethyl)-allylsulfanyl]-2-methyl-phenoxy}-acetic acid]
29 nM and 27.8 nM | C=C(COc1ccc(OC(F)(F)F)cc1)CSc1ccc(OCC(=O)O)c(C)c1 [Compound 4, {2-Methyl-4-[2-(4-trifluoromethoxy-phenoxymethyl)-allylsulfanyl]-phenoxy}-acetic acid]
56.6 nM and 42.9 nM | C=C(COc1ccc(Cl)c(Cl)c1)CSc1ccc(OCC(=O)O)c(C)c1 [Compound 6, {4-[2-(3,4-Dichloro-phenoxymethyl)-allylsulfanyl]-2-methyl-phenoxy}-acetic acid]
216 nM | C=C(COc1ccc(OC)cc1)CSc1ccc(OCC(=O)O)c(C)c1 [Compound 9, {4-[2-(4-Methoxy-phenoxymethyl)-allylsulfanyl]-2-methyl-phenoxy}-acetic acid]
> 1000 nM | C=C(CSc1ccc(OCC(=O)O)c(C)c1)Oc1ccc(C(F)(F)F)cc1 [Compound 21, {2-Methyl-4-[2-(4-trifluoromethyl-phenoxy)-allylsulfanyl]-phenoxy}-acetic acid]
249 nM | C=C(COc1ccc(C(F)(F)F)cc1)COc1ccc(OCC(=O)O)c(C)c1 [Compound 29]
9.7 nM and 7.4 nM | CCCC(CCC)(COc1ccc(C(F)(F)F)cc1)CSc1ccc(OCC(=O)O)c(C)c1 [Compound 24, {2-Methyl-4-[2-propyl-2-(4-trifluoromethyl-phenoxymethyl)-pentylsulfanyl]phenoxy}-acetic acid]
711 nM | C=C(COc1ccccc1)CSc1ccc(OCC(=O)O)c(C)c1 [Compound 3, [2-Methyl-4-(2-phenoxymethyl-allylsulfanyl)-phenoxy]-acetic acid]
147 nM | Cc1cc(SCC(F)(F)COc2ccc(C(F)(F)F)cc2)ccc1OCC(=O)O [Compound 25, {4-[2,2-Difluoro-3-(4-trifluoromethyl-phenoxy)-propylsulfanyl]-2-methyl-phenoxy}-acetic acid]
22.7 nM and 22.1 nM | CC(C)=C(COc1ccc(C(F)(F)F)cc1)CSc1ccc(OCC(=O)O)c(C)c1 [Compound 15, {2-Methyl-4-[3-methyl-2-(4-trifluoromethyl-phenoxymethyl)-but-2-enylsulfanyl]-phenoxy}-acetic acid]
194 nM | C=C(CCSc1ccc(OCC(=O)O)c(C)c1)Oc1ccc(C(F)(F)F)cc1 [Compound 20, {2-Methyl-4-[3-(4-trifluoromethyl-phenoxy)-but-3-enylsulfanyl]phenoxy}-acetic acid]

same assay, conditions: value printed in running text after characterisation data; multiple values = multiple measurements; read-out: PPARdleta EC50

EC50 | Compound
13 nM and 18 nM | C=C(COc1ccc(C(C)=O)c(O)c1CCC)CSc1ccc(OCC(=O)O)c(C)c1 [{4-[2-(4-acetyl-3-hydroxy-2-propyl-phenoxymethyl)-allylsulfanyl]-2-methyl-phenoxy}-acetic acid]
> 3000 nM | C=C(COc1ccc(C(F)(F)F)cc1)CSc1ccc(Cl)cc1OCC(=O)O [[5-chloro-2-[[2-[[4-(trifluoromethyl)phenoxy]methyl]-2-propenyl]thio]phenoxy]-acetic acid]
> 3000 nM | C=C(COc1ccc(C(F)(F)F)cc1)C[S+]([O-])c1ccc(OCC(=O)O)c(C)c1 (centres unmarked) [[2-methyl-4-[[2-[[4-(trifluoromethyl)phenoxy]methyl]-2-propenyl]sulfinyl]phenoxy]-acetic acid]
> 3000 nM | C=C(COc1ccc(C(F)(F)F)cn1)CSc1ccc(OCC(=O)O)c(C)c1 [[2-methyl-4-[[2-[[[5-(trifluoromethyl)-2-pyridinyl]oxy]methyl]-2-propenyl]thio]phenoxy]-acetic acid]
